Data reported in ChEMBL document CHEMBL4043234, “Anticancer efficacy of p-dodecylaminophenol against high-risk and refractory neuroblastoma cells in vitro and in vivo” (Bioorg Med Chem Lett, 2017).
Active and inactive are the calls of the source. The calls are words filed in the database; no cut-off is given here.

How the values were obtained:
[1] = tested on: SK-N-AS; assay: Cell cycle arrest in human SK-N-AS cells at 4 uM up to 72 hrs by propidium iodide staining based flow cytometry; type: functional
[2] = tested on: IMR-32; assay: Growth inhibition of human IMR32 cells at 0.4 uM after 72 hrs by MTT assay relative to control; type: functional; conditions: IMR-32, 72 h, read-out: GI
[3] = tested on: SK-N-AS; assay: Growth inhibition of human SK-N-AS cells at 1 uM after 24 hrs by MTT assay relative to control; type: functional; conditions: read-out: GI
[4] = tested on: IMR-32; assay: Growth inhibition of human IMR32 cells at 0.1 uM after 72 hrs by MTT assay relative to control; type: functional; conditions: IMR-32, 72 h, read-out: GI
[5] = tested on: IMR-32; assay: Induction of apoptosis in human IMR32 cells assessed as decrease in Bcl-2 mRNA expression level at 4 uM after 8 hrs by real-time PCR method; type: functional, cell-based
[6] = tested on: SK-N-AS; assay: Growth inhibition of human SK-N-AS cells at 1 uM after 72 hrs by MTT assay relative to control; type: functional; conditions: read-out: GI
[7] = tested on: IMR-32; assay: Reduction in N-myc mRNA expression level in human IMR32 cells at 4 uM after 8 hrs by real-time PCR method; type: functional, cell-based
[8] = tested on: SK-N-AS; assay: Cell cycle arrest in human SK-N-AS cells assessed as accumulation at sub-G1 phase at 4 uM after 24 hrs by propidium iodide staining based flow cytometry; type: functional
[9] = tested on: IMR-32; assay: Growth inhibition of human IMR32 cells at 0.01 uM after 72 hrs by MTT assay relative to control; type: functional; conditions: IMR-32, 72 h, read-out: GI
[10] = tested on: IMR-32; assay: Induction of apoptosis in human IMR32 cells assessed as decrease in Bcl-2 mRNA expression level at 4 uM after 24 hrs by real-time PCR method relative to control; type: functional; set-up: scale not given: the % may be the effect or the level left
[11] = tested on: IMR-32; assay: Growth inhibition of human IMR32 cells at 0.1 uM after 24 hrs by MTT assay relative to control; type: functional; conditions: IMR-32, 24 h, read-out: GI
[12] = tested on: IMR-32; assay: Reduction in N-myc mRNA expression level in human IMR32 cells at 4 uM after 24 hrs by real-time PCR method relative to control; type: functional; set-up: scale not given: the % may be the effect or the level left
[13] = tested on: SK-N-AS; assay: Induction of apoptosis in human SK-N-AS cells assessed as caspase-3 activity at 4 uM after 8 to 24 hrs by CPP32 based colorimetric assay; type: functional, cell-based
[14] = tested on: SK-N-AS; assay: Induction of apoptosis in human SK-N-AS cells assessed as increase in caspase-3 activity at 0.4 uM after 8 hrs by CPP32 based colorimetric assay relative to control; type: functional
[15] = tested on: SK-N-AS; assay: Cell cycle arrest in human SK-N-AS cells assessed as decrease in S phase population at 0.4 uM after 24 hrs by propidium iodide staining based flow cytometry relative to control; type: functional
[16] = tested on: SK-N-AS; assay: Antitumor activity against human SK-N-AS cells xenografted in specific-pathogen-free KSN athymic nude mouse assessed as decrease in tumor weight at 12.5 mg/kg/day administered ip for 2 weeks measured on day 21 relative to control; type: functional; set-up: scale not given: the % may be the effect or the level left
[17] = tested on: IMR-32; assay: Induction of apoptosis in human IMR32 cells assessed as decrease in Bcl-2 mRNA expression level at 0.4 to 4 uM after 8 hrs by real-time PCR method; type: functional, cell-based
[18] = tested on: SK-N-AS; assay: Cell cycle arrest in human SK-N-AS cells assessed as accumulation at sub-G1 phase at 0.4 uM after 72 hrs by propidium iodide staining based flow cytometry (reference value: 1.13 +/- 0.13%); type: functional
[19] = tested on: SK-N-AS; assay: Cell cycle arrest in human SK-N-AS cells assessed as increase in G0/G1 cell population at 0.4 uM after 24 hrs by propidium iodide staining based flow cytometry relative to control; type: functional
[20] = tested on: SK-N-AS; assay: Induction of apoptosis in human SK-N-AS cells assessed as increase in caspase-3 activity at 4 uM after 24 hrs by CPP32 based colorimetric assay relative to control; type: functional
[21] = tested on: SK-N-AS; assay: Induction of apoptosis in human SK-N-AS cells assessed as increase in caspase-3 activity at 4 uM by CPP32 based colorimetric assay; type: functional, cell-based; conditions: TDE = time-dependent effect
[22] = tested on: Mus musculus; assay: Toxicity in specific-pathogen-free KSN athymic nude mouse xenografted with human SK-N-AS cells assessed as change in body weight at 12.5 to 50 mg/kg/day administered ip for 2 weeks measured on day 21; type: organism-based; conditions: in vivo, 336 h
[23] = tested on: SK-N-AS; assay: Induction of apoptosis in human SK-N-AS cells assessed as decrease in Bcl-2 mRNA expression level after 24 hrs by real-time PCR method; type: functional, cell-based
[24] = tested on: SK-N-AS; assay: Cell cycle arrest in human SK-N-AS cells assessed as accumulation at S phase at 0.4 uM after 8 hrs by propidium iodide staining based flow cytometry (reference value: 28.55 +/- 0.74%); type: functional
[25] = tested on: SK-N-AS; assay: Cell cycle arrest in human SK-N-AS cells assessed as increase in sub-G1 phase population at 4 uM after 24 hrs by propidium iodide staining based flow cytometry relative to control; type: functional
[26] = tested on: SK-N-AS; assay: Cell cycle arrest in human SK-N-AS cells assessed as decrease in G2/M phase population at 0.4 uM after 72 hrs by propidium iodide staining based flow cytometry relative to control; type: functional
[27] = tested on: IMR-32; assay: Reduction in N-myc mRNA expression level in human IMR32 cells at 0.4 to 4 uM after 8 hrs by real-time PCR method; type: functional, cell-based
[28] = tested on: SK-N-AS; assay: Cell cycle arrest in human SK-N-AS cells assessed as accumulation at S phase at 0.4 uM after 72 hrs by propidium iodide staining based flow cytometry (reference value: 28.55 +/- 0.74%); type: functional
[29] = tested on: SK-N-AS; assay: Cell cycle arrest in human SK-N-AS cells assessed as accumulation at G2/M phase at 0.4 uM after 24 hrs by propidium iodide staining based flow cytometry (reference value: 25.31 +/- 2.89%); type: functional
[30] = tested on: SK-N-AS; assay: Cell cycle arrest in human SK-N-AS cells assessed as accumulation at sub-G1 phase at 0.4 uM after 48 hrs by propidium iodide staining based flow cytometry (reference value: 1.13 +/- 0.13%); type: functional
[31] = tested on: SK-N-AS; assay: Antitumor activity against human SK-N-AS cells xenografted in specific-pathogen-free KSN athymic nude mouse assessed as tumor growth inhibition at 50 mg/kg/day administered ip for 2 weeks measured on day 21 relative to control; type: functional; conditions: read-out: TGI
[32] = tested on: SK-N-AS; assay: Cell cycle arrest in human SK-N-AS cells assessed as decrease in S phase population at 0.4 uM after 48 hrs by propidium iodide staining based flow cytometry relative to control; type: functional
[33] = tested on: SK-N-AS; assay: Induction of apoptosis in human SK-N-AS cells assessed as decrease in Bcl-2 mRNA expression level after 8 hrs by real-time PCR method; type: functional, cell-based
[34] = tested on: SK-N-AS; assay: Induction of apoptosis in human SK-N-AS cells assessed as increase in caspase-3 activity at 0.4 uM after 24 hrs by CPP32 based colorimetric assay relative to control; type: functional
[35] = tested on: SK-N-AS; assay: Cell cycle arrest in human SK-N-AS cells assessed as increase in G0/G1 cell population at 0.4 uM after 48 hrs by propidium iodide staining based flow cytometry relative to control; type: functional
[36] = tested on: SK-N-AS; assay: Induction of apoptosis in human SK-N-AS cells assessed as increase in caspase-3 activity at 4 uM after 8 hrs by CPP32 based colorimetric assay relative to control; type: functional
[37] = tested on: SK-N-AS; assay: Induction of apoptosis in human SK-N-AS cells assessed as decrease in Bcl-2 mRNA expression level at 4 uM after 24 hrs by real-time PCR method relative to control; type: functional; set-up: scale not given: the % may be the effect or the level left
[38] = tested on: SK-N-AS; assay: Antitumor activity against human SK-N-AS cells xenografted in specific-pathogen-free KSN athymic nude mouse assessed as tumor growth inhibition at 12.5 mg/kg/day administered ip for 2 weeks measured on day 21 relative to control; type: functional; conditions: read-out: TGI
[39] = tested on: SK-N-AS; assay: Cell cycle arrest in human SK-N-AS cells assessed as accumulation at sub-G1 phase at 0.4 uM after 8 hrs by propidium iodide staining based flow cytometry (reference value: 1.13 +/- 0.13%); type: functional
[40] = tested on: SK-N-AS; assay: Induction of apoptosis in human SK-N-AS cells assessed as decrease in Bcl-2 mRNA expression level at 0.4 uM after 24 hrs by real-time PCR method relative to control; type: functional; set-up: scale not given: the % may be the effect or the level left
[41] = tested on: SK-N-AS; assay: Cell cycle arrest in human SK-N-AS cells assessed as decrease in G2/M phase population at 0.4 uM after 48 hrs by propidium iodide staining based flow cytometry relative to control; type: functional
[42] = tested on: SK-N-AS; assay: Cell cycle arrest in human SK-N-AS cells at 4 uM by propidium iodide staining based flow cytometry; type: functional; conditions: TDE = time-dependent effect
[43] = tested on: SK-N-AS; assay: Cell cycle arrest in human SK-N-AS cells assessed as accumulation at G2/M phase at 0.4 uM after 8 hrs by propidium iodide staining based flow cytometry (reference value: 25.31 +/- 2.89%); type: functional
[44] = tested on: SK-N-AS; assay: Antitumor activity against human SK-N-AS cells xenografted in specific-pathogen-free KSN athymic nude mouse assessed as decrease in tumor weight at 50 mg/kg/day administered ip for 2 weeks measured on day 21 relative to control; type: functional; set-up: scale not given: the % may be the effect or the level left
[45] = tested on: IMR-32; assay: Induction of apoptosis in human IMR32 cells assessed as decrease in Bcl-2 mRNA expression level at 0.4 to 4 uM after 24 hrs by real-time PCR method relative to control; type: functional; set-up: scale not given: the % may be the effect or the level left
[46] = tested on: SK-N-AS; assay: Cell cycle arrest in human SK-N-AS cells assessed as accumulation at G0/G1 phase at 0.4 uM after 8 hrs by propidium iodide staining based flow cytometry (reference value: 46.14 +/- 3.63%); type: functional
[47] = tested on: SK-N-AS; assay: Cell cycle arrest in human SK-N-AS cells assessed as increase in G0/G1 cell population at 0.4 uM after 72 hrs by propidium iodide staining based flow cytometry relative to control; type: functional
[48] = tested on: SK-N-AS; assay: Cell cycle arrest in human SK-N-AS cells assessed as increase in sub-G1 phase population at 0.4 uM after 24 hrs by propidium iodide staining based flow cytometry relative to control; type: functional

CC1=C(/C=C/C(C)=C/C=C/C(C)=C/C(=O)O)C(C)(C)CCC1 [TRETINOIN]
Activity [1]: Active
inhibition of growth at 0.4 µM [2]: 65%
inhibition of growth at 1 µM [3]: 0%
inhibition of growth at 0.1 µM [4]: 60%
Activity [5]: inactive
inhibition of growth at 1 µM [6]: 3%
Activity [7]: inactive
Activity [8]: Active
inhibition of growth at 0.01 µM [9]: 47%
Activity [10]: 67%
inhibition of growth at 0.1 µM [11]: 9%
Activity [12]: 13%
Activity [13]: inactive

CCCCCCCCCCNc1ccc(O)cc1
inhibition of growth at 1 µM [3]: 44%
inhibition of growth at 1 µM [6]: 60%

CCCCCCCCCCCCNc1ccc(O)cc1
fold change (FC) [14]: 1.6
fold change (FC) [15]: 0.73
Activity [16]: 33%
Activity [17]: inactive
Activity [18]: 9.78%
fold change (FC) [19]: 1.18
fold change (FC) [20]: 12
inhibition of growth at 0.4 µM [2]: 100%
Activity [21]: Tde
Activity [22]: Non-Toxic
Activity [23]: Dose-dependent effect
Activity [24]: 22.4%
fold change (FC) [25]: 23
fold change (FC) [26]: 0.68
Activity [27]: inactive
inhibition of growth at 1 µM [3]: 82%
inhibition of growth at 0.1 µM [4]: 92%
inhibition of growth at 1 µM [6]: 83 to 90%
Activity [28]: 28.8%
Activity [29]: 24.84%
Activity [30]: 5.57%
inhibition in vivo at 50 mg/kg/day [31]: 58%
fold change (FC) [32]: 0.89
Activity [33]: inactive
fold change (FC) [34]: 5.3
fold change (FC) [35]: 1.18
fold change (FC) [36]: 3.6
Activity [37]: 19%
inhibition in vivo at 12.5 mg/kg/day [38]: 40%
inhibition of growth at 0.01 µM [9]: 15%
Activity [39]: 1.19%
Activity [40]: 35%
inhibition of growth at 0.1 µM [11]: 78%
Activity [12]: 52%
fold change (FC) [41]: 0.79
Activity [42]: Tde
Activity [43]: 30.56%
Activity [44]: 37%
Activity [45]: 63%
Activity [46]: 47.04%
fold change (FC) [47]: 1.17
fold change (FC) [48]: 3
